Results taken from ChEMBL document CHEMBL5465560, “Selectivity Literature for EUbOPEN Chemogenomic Library” (2024).

Key:
[1] = target: T1, Protein kinase C iota type (Homo sapiens) (UniProt P41743); test: Selectivity interaction (KinomeScan (DiscoverX)) EUB0001049a PRKCI; conditions: at 1 µM
T1 sequence (whole entry): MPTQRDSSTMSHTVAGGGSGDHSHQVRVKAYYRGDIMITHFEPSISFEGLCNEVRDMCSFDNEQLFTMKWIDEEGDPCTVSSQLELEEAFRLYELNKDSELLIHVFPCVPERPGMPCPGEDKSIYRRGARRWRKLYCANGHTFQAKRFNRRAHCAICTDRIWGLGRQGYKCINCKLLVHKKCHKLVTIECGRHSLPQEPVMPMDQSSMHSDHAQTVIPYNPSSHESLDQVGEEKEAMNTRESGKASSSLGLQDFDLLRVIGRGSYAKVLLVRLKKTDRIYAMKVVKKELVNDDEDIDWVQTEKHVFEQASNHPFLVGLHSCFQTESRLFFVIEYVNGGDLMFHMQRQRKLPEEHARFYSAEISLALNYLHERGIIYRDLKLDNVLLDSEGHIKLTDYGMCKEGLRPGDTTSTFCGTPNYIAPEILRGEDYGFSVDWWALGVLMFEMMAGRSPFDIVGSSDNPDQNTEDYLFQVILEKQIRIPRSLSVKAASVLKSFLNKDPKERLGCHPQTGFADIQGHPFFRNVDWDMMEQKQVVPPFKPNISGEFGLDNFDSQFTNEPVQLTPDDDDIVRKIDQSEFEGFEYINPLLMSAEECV

[2] = target: T2, Phosphatidylinositol 4,5-bisphosphate 3-kinase catalytic subunit delta isoform (Homo sapiens) (UniProt O00329); test: Selectivity interaction (Kinase panel (KiNativ target engagement assay in Jurkat cells)) EUB0001635a PIK3CD; type: cell-based; conditions: Selectivity number of off-targets 0.0, Selectivity number of targets 233.0, Source Knowledge https://www.sciencedirect.com/science/article/pii/S2451945619300674?via%3Dihub, at 1 µM
T2 sequence (whole entry): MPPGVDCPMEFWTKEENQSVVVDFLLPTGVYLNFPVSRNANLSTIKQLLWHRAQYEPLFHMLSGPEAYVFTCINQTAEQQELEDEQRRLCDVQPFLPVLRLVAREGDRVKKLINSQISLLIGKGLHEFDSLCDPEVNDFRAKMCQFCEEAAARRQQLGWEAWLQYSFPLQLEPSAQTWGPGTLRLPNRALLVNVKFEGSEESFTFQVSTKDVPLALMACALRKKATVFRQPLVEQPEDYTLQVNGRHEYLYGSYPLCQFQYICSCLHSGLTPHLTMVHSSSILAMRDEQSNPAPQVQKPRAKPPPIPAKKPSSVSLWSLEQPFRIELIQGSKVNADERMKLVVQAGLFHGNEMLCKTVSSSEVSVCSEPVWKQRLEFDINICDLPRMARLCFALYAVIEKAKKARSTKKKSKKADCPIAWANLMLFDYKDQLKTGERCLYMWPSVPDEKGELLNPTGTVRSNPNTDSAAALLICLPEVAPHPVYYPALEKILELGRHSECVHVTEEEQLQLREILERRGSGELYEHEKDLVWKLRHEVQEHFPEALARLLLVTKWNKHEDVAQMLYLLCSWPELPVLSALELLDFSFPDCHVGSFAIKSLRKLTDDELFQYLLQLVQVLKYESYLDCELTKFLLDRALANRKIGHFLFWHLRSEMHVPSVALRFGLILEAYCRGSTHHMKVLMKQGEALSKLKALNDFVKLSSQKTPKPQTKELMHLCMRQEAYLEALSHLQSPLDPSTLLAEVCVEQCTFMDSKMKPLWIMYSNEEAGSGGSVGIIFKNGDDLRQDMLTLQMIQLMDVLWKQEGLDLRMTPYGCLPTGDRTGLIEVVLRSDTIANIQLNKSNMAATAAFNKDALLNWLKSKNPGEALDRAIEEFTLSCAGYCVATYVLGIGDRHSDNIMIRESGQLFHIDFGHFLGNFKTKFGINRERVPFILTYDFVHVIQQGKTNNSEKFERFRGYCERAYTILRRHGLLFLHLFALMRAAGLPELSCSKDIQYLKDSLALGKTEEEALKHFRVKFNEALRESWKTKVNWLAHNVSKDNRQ

[3] = target: Casein kinase I isoform epsilon (Homo sapiens, UniProt P49674); conditions: at 10 µM
Sequence of Casein kinase I isoform epsilon (P49674 whole entry, looked up, canonical isoform): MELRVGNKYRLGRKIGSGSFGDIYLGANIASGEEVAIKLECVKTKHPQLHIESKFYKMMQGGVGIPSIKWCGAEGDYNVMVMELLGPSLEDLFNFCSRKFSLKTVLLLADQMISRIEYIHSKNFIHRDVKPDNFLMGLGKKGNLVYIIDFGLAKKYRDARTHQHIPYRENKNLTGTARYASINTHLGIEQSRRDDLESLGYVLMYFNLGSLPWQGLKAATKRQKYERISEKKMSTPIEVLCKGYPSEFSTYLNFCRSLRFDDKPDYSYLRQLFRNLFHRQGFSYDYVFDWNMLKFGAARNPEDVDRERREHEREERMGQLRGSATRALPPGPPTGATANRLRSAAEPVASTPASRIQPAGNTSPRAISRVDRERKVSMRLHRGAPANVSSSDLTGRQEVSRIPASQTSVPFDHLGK

[4] = system: Phosphatidylinositol 4,5-bisphosphate 3-kinase catalytic subunit alpha isoform (Homo sapiens), P42336 [Q546K]; test: (§1) Selectivity interaction (Ambit KINOMEscan and KiNATiv profiling in Jurkat cells) EUB0000090b PIK3CA; type: cell-based; conditions: at 1 µM
Sequence of Phosphatidylinositol 4,5-bisphosphate 3-kinase catalytic subunit alpha isoform (Homo sapiens), P42336 [Q546K] (P42336 whole entry Q546K, canonical isoform): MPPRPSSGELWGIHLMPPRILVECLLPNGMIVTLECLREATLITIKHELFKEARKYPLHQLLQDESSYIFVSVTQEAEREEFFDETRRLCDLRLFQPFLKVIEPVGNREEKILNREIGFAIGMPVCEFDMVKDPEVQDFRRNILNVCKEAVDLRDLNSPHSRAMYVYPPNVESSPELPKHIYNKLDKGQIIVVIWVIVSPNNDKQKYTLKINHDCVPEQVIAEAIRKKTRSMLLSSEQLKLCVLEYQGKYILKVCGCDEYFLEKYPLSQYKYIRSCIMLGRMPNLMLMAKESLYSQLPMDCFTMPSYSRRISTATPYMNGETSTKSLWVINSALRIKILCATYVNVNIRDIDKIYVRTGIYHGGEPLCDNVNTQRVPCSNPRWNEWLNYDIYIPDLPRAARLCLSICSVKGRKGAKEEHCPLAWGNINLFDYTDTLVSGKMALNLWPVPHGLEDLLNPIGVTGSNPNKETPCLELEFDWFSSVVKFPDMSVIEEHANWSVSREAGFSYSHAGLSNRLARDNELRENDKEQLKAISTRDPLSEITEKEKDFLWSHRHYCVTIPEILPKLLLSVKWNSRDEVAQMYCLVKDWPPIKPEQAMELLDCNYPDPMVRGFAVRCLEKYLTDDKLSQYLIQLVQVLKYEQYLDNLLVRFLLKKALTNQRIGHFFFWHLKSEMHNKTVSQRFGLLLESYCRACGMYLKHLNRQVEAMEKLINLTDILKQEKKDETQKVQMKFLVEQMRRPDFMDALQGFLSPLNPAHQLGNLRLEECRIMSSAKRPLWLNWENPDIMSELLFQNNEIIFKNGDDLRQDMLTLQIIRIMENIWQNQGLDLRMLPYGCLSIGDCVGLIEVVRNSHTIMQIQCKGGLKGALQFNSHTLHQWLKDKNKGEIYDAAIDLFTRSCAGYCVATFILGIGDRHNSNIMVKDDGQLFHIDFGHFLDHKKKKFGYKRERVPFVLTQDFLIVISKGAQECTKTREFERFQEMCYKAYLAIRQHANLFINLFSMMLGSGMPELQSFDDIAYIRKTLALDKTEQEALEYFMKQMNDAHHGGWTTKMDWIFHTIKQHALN

[5] = target: Phosphatidylinositol 4,5-bisphosphate 3-kinase catalytic subunit alpha isoform (Homo sapiens) (UniProt P42336); test: as §1; type: cell-based; conditions: at 1 µM
Sequence of Phosphatidylinositol 4,5-bisphosphate 3-kinase catalytic subunit alpha isoform (Homo sapiens) (P42336 whole entry, canonical isoform): as the sequence (P42336 whole entry Q546K, canonical isoform) above, with K546Q counted along it

[6] = system: Phosphatidylinositol 4,5-bisphosphate 3-kinase catalytic subunit alpha isoform (Homo sapiens), P42336 [E545K]; test: as §1; type: cell-based; conditions: at 1 µM
Sequence of Phosphatidylinositol 4,5-bisphosphate 3-kinase catalytic subunit alpha isoform (Homo sapiens), P42336 [E545K] (P42336 whole entry E545K, canonical isoform): as the sequence (P42336 whole entry Q546K, canonical isoform) above, with E545K, K546Q counted along it

[7] = system: Phosphatidylinositol 4,5-bisphosphate 3-kinase catalytic subunit alpha isoform (Homo sapiens), P42336 [I800L]; test: as §1; type: cell-based; conditions: at 1 µM
Sequence of Phosphatidylinositol 4,5-bisphosphate 3-kinase catalytic subunit alpha isoform (Homo sapiens), P42336 [I800L] (P42336 whole entry I800L, canonical isoform): as the sequence (P42336 whole entry Q546K, canonical isoform) above, with K546Q, I800L counted along it

[8] = system: Phosphatidylinositol 4,5-bisphosphate 3-kinase catalytic subunit alpha isoform (Homo sapiens), P42336 [E542K]; test: as §1; type: cell-based; conditions: at 1 µM
Sequence of Phosphatidylinositol 4,5-bisphosphate 3-kinase catalytic subunit alpha isoform (Homo sapiens), P42336 [E542K] (P42336 whole entry E542K, canonical isoform): as the sequence (P42336 whole entry Q546K, canonical isoform) above, with E542K, K546Q counted along it

[9] = system: Phosphatidylinositol 4,5-bisphosphate 3-kinase catalytic subunit alpha isoform (Homo sapiens), P42336 [C420R]; test: as §1; type: cell-based; conditions: at 1 µM
Sequence of Phosphatidylinositol 4,5-bisphosphate 3-kinase catalytic subunit alpha isoform (Homo sapiens), P42336 [C420R] (P42336 whole entry C420R, canonical isoform): as the sequence (P42336 whole entry Q546K, canonical isoform) above, with C420R, K546Q counted along it

[10] = system: Phosphatidylinositol 4,5-bisphosphate 3-kinase catalytic subunit alpha isoform (Homo sapiens), P42336 [E545A]; test: as §1; type: cell-based; conditions: at 1 µM
Sequence of Phosphatidylinositol 4,5-bisphosphate 3-kinase catalytic subunit alpha isoform (Homo sapiens), P42336 [E545A] (P42336 whole entry E545A, canonical isoform): as the sequence (P42336 whole entry Q546K, canonical isoform) above, with E545A, K546Q counted along it

[11] = system: Phosphatidylinositol 4,5-bisphosphate 3-kinase catalytic subunit alpha isoform (Homo sapiens), P42336 [H1047Y]; test: as §1; type: cell-based; conditions: at 1 µM
Sequence of Phosphatidylinositol 4,5-bisphosphate 3-kinase catalytic subunit alpha isoform (Homo sapiens), P42336 [H1047Y] (P42336 whole entry H1047Y, canonical isoform): as the sequence (P42336 whole entry Q546K, canonical isoform) above, with K546Q, H1047Y counted along it

[12] = system: Phosphatidylinositol 4,5-bisphosphate 3-kinase catalytic subunit alpha isoform (Homo sapiens), P42336 [H1047L]; test: as §1; type: cell-based; conditions: at 1 µM
Sequence of Phosphatidylinositol 4,5-bisphosphate 3-kinase catalytic subunit alpha isoform (Homo sapiens), P42336 [H1047L] (P42336 whole entry H1047L, canonical isoform): as the sequence (P42336 whole entry Q546K, canonical isoform) above, with K546Q, H1047L counted along it

[13] = system: Phosphatidylinositol 4,5-bisphosphate 3-kinase catalytic subunit alpha isoform (Homo sapiens), P42336 [M1043I]; test: as §1; type: cell-based; conditions: at 1 µM
Sequence of Phosphatidylinositol 4,5-bisphosphate 3-kinase catalytic subunit alpha isoform (Homo sapiens), P42336 [M1043I] (P42336 whole entry M1043I, canonical isoform): as the sequence (P42336 whole entry Q546K, canonical isoform) above, with K546Q, M1043I counted along it

[14] = Selectivity interaction (KinomeScan (DiscoverX)) EUB0000618a PKNB; conditions: at 10 µM

Compound: COc1cc(Nc2nc(C)cc(-c3cnn4nc(OC)ccc34)n2)cc(C(F)(F)F)c1
- % of control [1]: 79%

Compound: C=CC(=O)Nc1ccc(C(=O)Nc2[nH]nc3c2CN(C(=O)N[C@H](CN(C)C)c2ccccc2)C3(C)C)cc1
- % of engagement [2]: -10.2%

Compound: CCN(CC)CCCCNc1ncc2cc(-c3cc(OC)cc(OC)c3)c(NC(=O)NC(C)(C)C)nc2n1
- % of control [3]: 100%

Compound: CN(C)C/C=C/C(=O)Nc1ccc(C(=O)N2CCCC(Nc3ncc(Cl)c(-c4c[nH]c5ccccc45)n3)C2)cc1 (centres undefined)
- % of control [4]: 98%
- % of control [5]: 92%
- % of control [6]: 99%
- % of control [7]: 89%
- % of control [8]: 93%
- % of control [9]: 87%
- % of control [10]: 83%
- % of control [11]: 95%
- % of control [12]: 100%
- % of control [13]: 100%

Compound: O[C@H]1CC[C@H](Nc2ncc3nc(Nc4c(F)cc(F)cc4F)n([C@H]4CCOC4)c3n2)CC1
- % of control [14]: 92%
